Active and inactive are the calls of the source.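 How the source made its calls: active means combined score above 52 from an acceptable curve fit, favoring EC50 below 10 µM and curve height over 20%; inactive means the rest.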
Biological target: ATP-dependent translocase ABCB1 (Homo sapiens) (UniProt P08183)
Assay: P-gp JC-1 efflux blockers potency – Jurkat-DNR cells, flow cytometry, follow-up, dose response (AID 489002)
Details: not given

ATP-dependent translocase ABCB1 (Homo sapiens), sequence (P08183 whole entry, looked up): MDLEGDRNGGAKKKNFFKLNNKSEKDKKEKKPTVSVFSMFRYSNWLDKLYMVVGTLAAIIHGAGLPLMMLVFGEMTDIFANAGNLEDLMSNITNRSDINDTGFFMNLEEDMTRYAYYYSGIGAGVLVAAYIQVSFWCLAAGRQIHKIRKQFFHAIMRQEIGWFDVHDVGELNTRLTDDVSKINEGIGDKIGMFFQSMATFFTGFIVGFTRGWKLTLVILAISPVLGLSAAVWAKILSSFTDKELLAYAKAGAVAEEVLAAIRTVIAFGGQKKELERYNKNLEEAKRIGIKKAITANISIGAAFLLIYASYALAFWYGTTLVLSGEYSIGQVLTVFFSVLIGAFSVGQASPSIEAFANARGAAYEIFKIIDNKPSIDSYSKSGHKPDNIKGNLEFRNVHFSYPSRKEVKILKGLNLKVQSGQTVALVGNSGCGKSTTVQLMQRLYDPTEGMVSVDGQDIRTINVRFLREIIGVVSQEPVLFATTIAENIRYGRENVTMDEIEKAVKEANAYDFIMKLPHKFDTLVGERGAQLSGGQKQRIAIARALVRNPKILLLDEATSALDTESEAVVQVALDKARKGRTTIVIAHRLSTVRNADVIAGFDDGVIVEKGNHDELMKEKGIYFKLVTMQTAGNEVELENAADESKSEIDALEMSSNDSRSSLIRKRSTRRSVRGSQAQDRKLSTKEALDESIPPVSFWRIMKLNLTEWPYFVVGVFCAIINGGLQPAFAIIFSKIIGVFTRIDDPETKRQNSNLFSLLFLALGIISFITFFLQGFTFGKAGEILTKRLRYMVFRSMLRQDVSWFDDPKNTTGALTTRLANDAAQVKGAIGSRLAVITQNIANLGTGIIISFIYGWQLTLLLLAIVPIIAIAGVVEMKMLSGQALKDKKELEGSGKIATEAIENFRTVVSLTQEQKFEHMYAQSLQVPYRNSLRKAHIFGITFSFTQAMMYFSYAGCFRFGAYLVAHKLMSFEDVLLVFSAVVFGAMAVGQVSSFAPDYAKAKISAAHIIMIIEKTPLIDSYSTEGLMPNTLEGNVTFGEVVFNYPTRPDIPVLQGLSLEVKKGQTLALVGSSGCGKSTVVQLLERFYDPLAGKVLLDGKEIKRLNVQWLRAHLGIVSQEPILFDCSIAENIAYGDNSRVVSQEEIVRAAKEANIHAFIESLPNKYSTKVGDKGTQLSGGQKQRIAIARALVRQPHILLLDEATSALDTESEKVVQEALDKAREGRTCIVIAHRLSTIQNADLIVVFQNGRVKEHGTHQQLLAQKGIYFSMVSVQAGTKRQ

| SMILES | EC50 |
| --- | --- |
| O=C(c1ccco1)N1CCN(c2c3c(nc4cc(-c5ccc(F)cc5)nn24)CCC3)CC1 | 1.85 µM |
| Cc1occc1C(=O)N1CCN(c2cc(-c3ccco3)nc3cc(-c4ccccc4)nn23)CC1 | 11.8 µM |
| c1ccc(-c2cc3nc(-c4ccco4)cc(N4CCNCC4)n3n2)cc1 | inactive |
| O=C(c1ccoc1)N1CCN(c2cc(-c3cccc(F)c3)nc3cc(-c4ccccc4)nn23)CC1 | inactive |
| O=C(C1CCCO1)N1CCN(c2c3c(nc4cc(-c5cccc(F)c5)nn24)CCCC3)CC1 (stereo not given) | inactive |
| O=C(c1ccoc1)N1CCN(c2cc(-c3ccoc3)nc3cc(-c4ccccc4)nn23)CC1 | inactive |
| CC(=O)N1CCN(c2cc(-c3ccco3)nc3cc(-c4cccc(Cl)c4)nn23)CC1 | 3.97 µM |
| CC(=O)N1CCN(c2cc(-c3ccco3)nc3cc(-c4ccccc4)nn23)CC1 | 5.44 µM |
| COc1ccc(-c2cc3nc(-c4ccccc4)cc(N4CCN(C(=O)c5ccoc5)CC4)n3n2)cc1 | 2.05 µM |
| O=C(c1ccoc1)N1CCN(c2cc(-c3ccco3)nc3cc(-c4cccs4)nn23)CC1 | 9.8 µM |
| O=C(c1ccsc1)N1CCN(c2cc(-c3ccco3)nc3cc(-c4ccccc4)nn23)CC1 | 5.69 µM |
| Cc1nc2cc(-c3ccc4c(c3)OCO4)nn2c(N2CCN(C(=O)c3ccoc3)CC2)c1C | 1.93 µM |
| COc1cccc(-c2cc(N3CCN(C(=O)c4ccoc4)CC3)n3nc(-c4cccc(OC)c4)cc3n2)c1 | 3.54 µM |
| COc1ccccc1-c1cc2nc(-c3ccco3)cc(N3CCN(C(=O)c4ccoc4)CC3)n2n1 | 10.3 µM |
| O=C(c1ccoc1)N1CCN(c2cc(-c3ccco3)nc3cc(-c4ccco4)nn23)CC1 | 2.03 µM |
| COc1ccc(-c2cc3nc(C)c(C)c(N4CCN(C(=O)c5ccoc5)CC4)n3n2)cc1 | 4.08 µM |
| Cc1nc2cc(-c3cccc(Cl)c3)nn2c(N2CCN(C(=O)c3ccoc3)CC2)c1C | inactive |
| O=C(c1ccoc1)N1CCN(c2cc(-c3cccc(F)c3)nc3cc(-c4cccc(Cl)c4)nn23)CC1 | 6.45 µM |
| O=C(c1ccoc1)N1CCCN(c2cc(-c3ccco3)nc3cc(-c4ccccc4)nn23)C1 | inactive |
| Cc1c(-c2ccco2)nc2cc(-c3ccccc3)nn2c1N1CCN(C(=O)c2ccoc2)CC1 | 6.48 µM |

| SMILES | EC50 |
| --- | --- |
| COc1ccc(-c2cc3nc(-c4ccco4)cc(N4CCN(C(=O)c5ccoc5)CC4)n3n2)cc1 | 4.86 µM |
| O=C1CN(c2cc(-c3ccco3)nc3cc(-c4ccccc4)nn23)CCN1c1ccccc1 | 6.61 µM |
| COc1cccc(-c2cc3nc(-c4cccc(C#N)c4)cc(N4CCN(C(=O)c5ccoc5)CC4)n3n2)c1 | 2.34 µM |
| O=C(OCc1ccccc1)N1CCN(c2cc(-c3ccco3)nc3cc(-c4ccccc4)nn23)CC1 | 3.03 µM |
| COc1cccc(-c2cc3nc(C)cc(N4CCN(C(=O)c5ccoc5)CC4)n3n2)c1 | inactive |
| O=C(c1ccoc1)N1CCN(c2cc(-c3ccco3)nc3cc(-c4ccc(Cl)cc4)nn23)CC1 | inactive |
| COc1cccc(-c2cc3nc(C)c(C)c(N4CCN(C(=O)c5ccoc5)CC4)n3n2)c1 | 12.8 µM |
| Cc1nc2cc(-c3ccc(Br)cc3)nn2c(N2CCN(C(=O)c3ccoc3)CC2)c1C | inactive |
| COc1cc(OC)cc(-c2cc3nc(C)c(C)c(N4CCN(C(=O)c5ccoc5)CC4)n3n2)c1 | 1.84 µM |
| Cc1nc2cc(-c3ccccc3)nn2c(N2CCN(C(=O)c3ccoc3)CC2)c1C | 2.19 µM |
| Cc1ccc(-c2cc(N3CCN(C(=O)c4ccoc4)CC3)n3nc(-c4ccccc4)cc3n2)o1 | inactive |
| O=C(c1coc2ccccc12)N1CCN(c2cc(-c3ccco3)nc3cc(-c4ccccc4)nn23)CC1 | inactive |
| O=C(c1ccoc1)N1CCN(c2cc(-c3ccco3)nc3cc(-c4cccc(-c5ccco5)c4)nn23)CC1 | 5.15 µM |
| O=C(c1ccoc1)N1CCN(c2cc(-c3ccco3)nc3cc(-c4ccccc4)nn23)CC1 | 4.6 µM |
| O=C(c1ccoc1)N1CCN(c2cc(-c3ccccc3)nc3cc(-c4ccncc4)nn23)CC1 | 9.92 µM |
| Cc1cccc(-c2cc3nc(-c4ccco4)cc(N4CCN(C(=O)c5ccoc5)CC4)n3n2)c1 | inactive |
| CNCCCN(C)c1cc(-c2ccco2)nc2cc(-c3ccccc3)nn12 | inactive |
| CC(C)(C)OC(=O)N1CCN(c2cc(-c3ccco3)nc3cc(-c4ccccc4)nn23)CC1 | inactive |
| COC(=O)c1cccc(-c2cc(N3CCN(C(=O)c4ccoc4)CC3)n3nc(-c4cccc(OC)c4)cc3n2)c1 | 2.97 µM |
| COc1ccccc1-c1cc(N2CCN(C(=O)c3ccoc3)CC2)n2nc(-c3ccccc3)cc2n1 | 15.3 µM |

| SMILES | EC50 |
| --- | --- |
| Cc1cc(C(=O)N2CCN(c3cc(-c4ccco4)nc4cc(-c5ccccc5)nn34)CC2)c(C)o1 | 8.68 µM |
| CN(CCCN(C)c1cc(-c2ccco2)nc2cc(-c3ccccc3)nn12)C(=O)c1ccoc1 | inactive |
| COc1cccc(-c2cc3nc(-c4ccccc4)c(C)c(N4CCN(C(=O)c5ccoc5)CC4)n3n2)c1 | 4.77 µM |
| Cc1cc(N2CCN(C(=O)C3CCCO3)CC2)n2nc(-c3cccc(F)c3)cc2n1 (stereo not given) | inactive |
| O=C(c1ccoc1)N1CCN(c2cc(-c3ccco3)nc3cc(-c4cccc(Cl)c4)nn23)CC1 | inactive |
| O=C(c1ccco1)N1CCN(c2cc(-c3ccco3)nc3cc(-c4ccccc4)nn23)CC1 | 8.53 µM |
| O=C(c1ccoc1)N1CCN(c2cc(-c3cccs3)nc3cc(-c4ccccc4)nn23)CC1 | 8.33 µM |
| COc1ccc(-c2[nH]nc3nc(N4CCN(C(=O)c5ccoc5)CC4)cc(C(F)(F)F)c23)cc1 | inactive |
| COc1ccc(-c2cc3nc(C)c(C)c(N4CCN(C(=O)c5ccco5)CC4)n3n2)cc1 | 4.78 µM |
| Cc1nc2cc(-c3ccncc3)nn2c(N2CCN(C(=O)c3ccoc3)CC2)c1C | inactive |
| CC1CN(C(=O)OC(C)(C)C)CCN1c1cc(-c2ccco2)nc2cc(-c3ccccc3)nn12 (stereo not given) | inactive |
| c1ccc(CN2CCN(c3cc(-c4ccco4)nc4cc(-c5ccccc5)nn34)CC2)cc1 | 3.84 µM |
| COc1cccc(-c2cc3nc(-c4ccccc4)cc(N4CCN(C(=O)c5ccoc5)CC4)n3n2)c1 | 7.07 µM |
| CC(C)(C)c1cc(N2CCN(C(=O)c3ccoc3)CC2)n2nc(-c3ccccc3)cc2n1 | inactive |
| COc1ccc(-c2cc(N3CCN(C(=O)c4ccoc4)CC3)n3nc(-c4ccccc4)cc3n2)cc1 | inactive |
| Cc1ccc(-c2cc3nc(-c4ccco4)cc(N4CCN(C(=O)c5ccoc5)CC4)n3n2)cc1 | inactive |
| COc1cccc(-c2cc3nc(C)c(C)c(N4CCN(C(=O)c5ccco5)CC4)n3n2)c1 | 11.8 µM |
| COc1cccc(-c2cc3nc(C)c(C(C)C)c(N4CCN(C(=O)c5ccoc5)CC4)n3n2)c1 | 10.2 µM |
| O=C(c1ccoc1)N1CCN(c2cc(-c3ccccc3F)nc3cc(-c4ccccc4)nn23)CC1 | 10.5 µM |

Same assay, conditions: at 50 µM (top of the series)

| SMILES | inhibition |
| --- | --- |
| COc1cccc(-c2cc3nc(C)c(C)c(N4CCN(Cc5ccco5)CC4)n3n2)c1 | inactive |
| Cc1nc2cc(-c3cccc(F)c3)nn2c(N2CCN(C(=O)c3ccco3)CC2)c1C | inactive |
| Cc1nn2c(N3CCN(C(=O)c4ccco4)CC3)cc(C(C)(C)C)nc2c1-c1ccc(Cl)cc1 | inactive |
| O=C(c1ccco1)N1CCN(c2cc(-c3ccccc3)nc3ncnn23)CC1 | inactive |
| CC(=O)N1CCN(c2c(C)c(C)nc3cc(-c4ccc(F)cc4)nn23)CC1 | inactive |
| COc1ccccc1-c1c(C)nn2c(N3CCN(C(=O)c4ccco4)CC3)cc(C)nc12 | inactive |

Source: PubChem BioAssay AID489002 (NMMLSC, 2010)
